Laboratory results from US7629361B2, “Salt of (S)-pantoprazole and its hydrates” (NYCOMED GmbH, priority 2002, dated 2009).
Entries after “also recorded” stand apart in the source; their conditions may differ.

Experiments:
human liver microsomes = test: Metabolization on human liver microsomes; format: in vitro ADME; conditions: 10 μM, 1 mg/ml protein, 120 min, n=3
Experimental: (§1) I) Human liver microsomes: Pantoprazole racemate and the (+)- and (−)-enantiomers (10 μM each) were incubated with human liver microsomes (source: TEBU, incubation in 1 mg/ml protein, 100 mM Tris-HCl, pH 7.4, 1 mM NADPH2). Reaction was terminated after 30 and 120 minutes by liquid nitrogen, the parent compound was detected by HPLC (10 mM KH2PO4, pH 7.4, acetonitril gradient 20-48%).

Recombinant CYP 2C19 = biological target: T1, Recombinant CYP 2C19 (Homo sapiens, UniProt P33261); test: Metabolization on recombinant CYP 2C19; format: in vitro ADME; conditions: 10 μM, 0.1 mg/ml protein, 120 min, n=3
T1 construct: purchased GENTEST
T1 sequence (P33261 whole entry): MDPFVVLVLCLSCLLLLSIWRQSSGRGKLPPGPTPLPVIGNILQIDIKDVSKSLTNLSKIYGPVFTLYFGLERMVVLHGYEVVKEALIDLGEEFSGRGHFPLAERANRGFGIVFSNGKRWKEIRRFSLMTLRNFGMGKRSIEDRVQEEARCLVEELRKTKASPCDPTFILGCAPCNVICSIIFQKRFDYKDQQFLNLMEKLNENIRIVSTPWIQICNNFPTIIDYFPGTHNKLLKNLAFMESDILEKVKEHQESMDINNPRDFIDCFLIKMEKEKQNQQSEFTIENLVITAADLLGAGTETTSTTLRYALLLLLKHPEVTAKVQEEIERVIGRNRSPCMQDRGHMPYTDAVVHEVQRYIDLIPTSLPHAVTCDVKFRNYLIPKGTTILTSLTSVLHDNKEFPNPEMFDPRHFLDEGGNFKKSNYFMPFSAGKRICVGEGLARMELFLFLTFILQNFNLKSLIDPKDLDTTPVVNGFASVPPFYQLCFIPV
Experimental: as §1
II) Recombinant CYP 2C19 (source: GENTEST); incubation method as described under I) (in presence of 0.1 mg/ml protein).

[1] = Hygroscopicity / water content of the salts; format: physicochemical; conditions: depending on drying conditions and atmospheric humidity
Experimental: Drying was carried out in a vacuum drying cabinet at <50 mbar and 40-45° C. [It is also possible to dispense with drying and to use the moist product (having an MIBK content of 10-20%) directly for step B].

[2] = Storage stability of the solid salts at elevated temperature
[3] = test system: pentagastrin-stimulated acid output in the Ghosh-Schild rat; test: Inhibition of acid output in the Ghosh-Schild rat after i.v. administration; format: in vivo; conditions: 1 μmol/kg i.v. 3 hours prior to pentagastrin stimulation; 3 to 7.5 hours after administration; FIG. 3; listed as (−)-enantiomer, Dihydrate
Experimental: Female Sprague Dawley CD rats (190-210 g body weight) were anaesthetised with 1.5 g/kg i.m. of urethane, in 5 ml/kg physiologic saline. The trachea was intubated and both, the left external jugular vein (for drug administration) and left femoral vein (for pentagastrin infusion) were cannulated. An esophagus/cardia-cannula (diameter: 1.7 mm) was inserted transorally, and a pylorus-cannula (diameter: 2.6 mm) was inserted through the duodenum, and both were secured with a ligature. The pyloric catheter was led through the right abdominal wall. Body temperature was maintained at 37.0±0.2° C. by means of infrared radiation and electric cushion (automatic infinite control via rectal temperature probe). After thorough flushing (about 50-100 ml), the stomach was continuously perfused with 0.5 ml/min of physiologic saline (37° C.). In the effluate, collected at 15 min intervals, the pH as well as the acid output were determined, the latter by titration to pH 7 with freshly prepared 0.01 N NaOH.
Gastric secretion was stimulated by a continuous intravenous infusion (left femoral vein) of 1 μg/kg×min pentagastrin (in 1.6 ml/h physiologic saline) starting after determination of two basal values of acid secretion, i.e., 30 min after commencement of stomach perfusion. See horizontal bars in FIGS. 1 and 2 for pentagastrin-infusion. […]

[4] = Wettability, dissolution rate and solubility compared to racemic pantoprazole magnesium dihydrate

Row | Molecule | metabolized on human microsomes (mean) (human liver microsomes) [%] | metabolized on CYP2C19 (mean) (Recombinant CYP 2C19) [%] | water content [1] | hygroscopicity (absorption of water) [1] | other results
1 | COc1ccnc(C[S+]([O-])c2nc3ccc(OC(F)F)cc3[nH]2)c1OC (racemic) [racemate, 5-difluoromethoxy-2-[(3,4-dimethoxy-2-pyridinyl)methylsulphinyl]-1H-benzimidazole] | 44 | 67 |  |  | 
2 | COc1ccnc(C[S+]([O-])c2nc3ccc(OC(F)F)cc3[nH]2)c1OC (single isomer, unassigned; (+)) [(+) enantiomer] | 44 | 64 |  |  | 
3 | COc1ccnc(C[S+]([O-])c2nc3cc(OC(F)F)ccc3[nH]2)c1OC (single isomer, unassigned; (-)) [(−)-Pantoprazole, (−)-[5-(difluoromethoxy)]-2-[(3,4-dimethoxy-2-pyridinyl)methylsulphinyl]-1H-benzimidazole] | 26 | 54 |  |  | 
4 | COc1ccnc(C[S+]([O-])c2nc3cc(OC(F)F)ccc3[n-]2)c1OC.COc1ccnc(C[S+]([O-])c2nc3cc(OC(F)F)ccc3[n-]2)c1OC.[Ca+2] (single isomer, unassigned; (-)) [(−)-pantoprazole calcium] |  |  | 4-8% |  | 
5 | COc1ccnc(C[S+]([O-])c2nc3cc(OC(F)F)ccc3[n-]2)c1OC.[Na+] (single isomer, unassigned; (-)) [(−)-pantoprazole sodium] |  |  |  | absorbs water | purity (according to HPLC) after storage ([2]; storage at 60-70° C., atmospheric conditions, starting purity 99.5%): 96-97%; hygroscopicity (absorption of water) ([1]; listed as (−)-Pantoprazole-Na): hygroscopic
6 | Magnesium (−)-bis{[5-(difluoromethoxy)]-2-[(3,4-dimethoxy-2-pyridinyl)methylsulphinyl]-1H-benzimidazolide} Dihydrate [(−)-pantoprazole magnesium dihydrate] |  |  | about 4.4% | non-hygroscopic | inhibition of acid secretion, Experiment 2, compared to the (+)-enantiomer [3]: significantly superior; also recorded: significantly more effective; stability (discolouration, decomposition) on storage ([2]; 70° C., one week): completely stable; sum of by-products on storage ([2]; storage under atmospheric conditions, 60-70° C.): remains virtually constant; wettability compared to racemic pantoprazole magnesium dihydrate [4]: better wettability; dissolution rate compared to racemic pantoprazole magnesium dihydrate ([4]; pH 7-7.4): considerably higher dissolution rate; solubility relative to racemic pantoprazole magnesium dihydrate ([4]; pH 10): about tenfold
